Measured values as given in ChEMBL document CHEMBL2321853, “Novel acylethanolamide derivatives that modulate body weight through enhancement of hypothalamic pro-opiomelanocortin (POMC) and/or decreased neuropeptide Y (NPY)” (J Med Chem, 2013).
The source made the active and inactive calls. The rule behind the calls is not given here.

How the values were obtained:
[1] = test system: Mus musculus; experiment: Antiobesity activity in Sabra mouse assessed as reduction in body weight at 1 mg/kg, ip administered on day 0, 10, 11, 12, 24, 29 measured on day 36 relative to control; type: functional; design: scale not given: the % may be the effect or the level left; conditions: route intraperitoneal
[2] = test system: Mus musculus; experiment: Antiobesity activity in Sabra mouse assessed as reduction in body weight at 1 mg/kg, ip administered on day 0, 10, 11, 12, 24, 29 measured on day 33 relative to control; type: functional; design: scale not given: the % may be the effect or the level left; conditions: route intraperitoneal
[3] = test system: Mus musculus; experiment: Antiobesity activity in Sabra mouse assessed as reduction in body weight at 1 mg/kg, ip administered on day 0, 10, 11, 12, 24, 29 measured on day 24 relative to control; type: functional; design: scale not given: the % may be the effect or the level left; conditions: route intraperitoneal
[4] = test system: Mus musculus; experiment: Antiobesity activity in Sabra mouse assessed as reduction in body weight at 1 mg/kg, ip administered on day 0, 10, 11, 12, 24, 29 measured on day 12 relative to control; type: functional; design: scale not given: the % may be the effect or the level left; conditions: route intraperitoneal
[5] = test system: Mus musculus; experiment: Antiobesity activity in C57BL/6 mouse assessed as change in cholesterol level at 5 mg/kg, ip measured on day 36 (reference value: 86.58 mg/dL); type: functional; conditions: route intraperitoneal
[6] = test system: Mus musculus; experiment: Antiobesity activity in C57BL/6 mouse assessed as change in AST level at 5 mg/kg, ip measured on day 36 (reference value: 146.7 IU/L); type: functional; conditions: route intraperitoneal
[7] = test system: Mus musculus; experiment: Antiobesity activity in C57BL/6 mouse assessed as change in glucose level in blood at 5 mg/kg, ip administered on day 1, 4, 5, 7, 17, 15, 19 measured on day 19 relative to control; type: functional; conditions: route intraperitoneal
[8] = test system: Mus musculus; experiment: Antiobesity activity in C57BL/6 mouse assessed as change in glucose level in blood at 5 mg/kg, ip administered on day 1, 4, 5, 7, 17, 15, 19 measured on day 3 relative to control; type: functional; conditions: route intraperitoneal
[9] = test system: Mus musculus; experiment: Antiobesity activity in C57BL/6 mouse assessed as weight loss at 5 mg/kg, ip administered on day 1, 4, 5, 7, 17, 15, 19 measured on day 19 relative to control; type: functional; conditions: route intraperitoneal
[10] = test system: Mus musculus; experiment: Antiobesity activity in C57BL/6 mouse assessed as weight loss at 5 mg/kg, ip administered on day 1, 4, 5, 7, 17, 15, 19 measured on day 17 relative to control; type: functional; conditions: route intraperitoneal
[11] = test system: Mus musculus; experiment: Antiobesity activity in C57BL/6 mouse assessed as weight loss at 5 mg/kg, ip administered on day 1, 4, 5, 7, 17, 15, 19 measured on day 12 relative to control; type: functional; conditions: route intraperitoneal
[12] = test system: Mus musculus; experiment: Antiobesity activity in C57BL/6 mouse assessed as weight loss at 5 mg/kg, ip administered on day 1, 4, 5, 7, 17, 15, 19 measured on day 3 relative to control; type: functional; conditions: route intraperitoneal
[13] = test system: Mus musculus; experiment: Increase in ALT levels in Sabra mouse at 1 mg/kg, ip administered on day 8, 12 and 43 measured on day 74; type: ADME, organism-based; design: dose 1 mg/kg, route intraperitoneal; conditions: in vivo
[14] = test system: Mus musculus; experiment: Antiobesity activity in Sabra mouse assessed as change in body weight at 1 mg/kg, ip administered on day 8, 12 and 43 measured on day 71 relative to control; type: functional; conditions: route intraperitoneal
[15] = test system: Mus musculus; experiment: Antiobesity activity in Sabra mouse assessed as change in body weight at 1 mg/kg, ip administered on day 8, 12 and 43 measured on day 50 relative to control; type: functional; conditions: route intraperitoneal
[16] = test system: Mus musculus; experiment: Antiobesity activity in Sabra mouse assessed as change in body weight at 1 mg/kg, ip administered on day 8, 12 and 43 measured on day 29 relative to control; type: functional; conditions: route intraperitoneal
[17] = test system: Mus musculus; experiment: Antiobesity activity in Sabra mouse assessed as change in body weight at 1 mg/kg, ip administered on day 8, 12 and 43 measured on day 15 relative to control; type: functional; conditions: route intraperitoneal
[18] = test system: Mus musculus; experiment: Hepatotoxicity in Sabra mouse assessed as coagulative necrosis changes at 1 mg/kg, ip administered on day 8, 9, 10, 11, 14, 18, 24 and 32 by hematoxylin and eosin staining-based histopathological analysis; type: toxicity, organism-based; design: dose 1 mg/kg, route intraperitoneal; conditions: in vivo
[19] = test system: Mus musculus; experiment: Hepatotoxicity in Sabra mouse assessed as centrilobular apoptotic changes at 1 mg/kg, ip administered on day 8, 9, 10, 11, 14, 18, 24 and 32 by hematoxylin and eosin staining-based histopathological analysis; type: toxicity, organism-based; design: dose 1 mg/kg, route intraperitoneal; conditions: in vivo
[20] = test system: Mus musculus; experiment: Enhancement of cognitive function in Sabra mouse at 1 mg/kg, ip measured on day 8 to 12 by eight-arm maze test; type: functional, organism-based; design: dose 1 mg/kg
[21] = test system: Hypothalamus; experiment: Effect on CAMKK2 gene expression in Sabra mouse hypothalamus assessed as change in mRNA level at 1 mg/kg, ip administered on day 8, 9, 10, 11, 14, 18, 24 and 32 by RT-PCR analysis relative to GAPDH; type: functional; conditions: route intraperitoneal
[22] = test system: Hypothalamus; experiment: Effect on 5HT1A gene expression in Sabra mouse hypothalamus assessed as change in mRNA level at 1 mg/kg, ip administered on day 8, 9, 10, 11, 14, 18, 24 and 32 by RT-PCR analysis relative to GAPDH; type: functional; conditions: route intraperitoneal
[23] = target: Transient receptor potential cation channel subfamily V member 1 (Rattus norvegicus) (UniProt O35433); experiment: Displacement of [3H]resiniferatoxin from TRPV1 receptor in Wistar rat spinal cord at 10 uM relative to control
Chain of Transient receptor potential cation channel subfamily V member 1 (Rattus norvegicus) (O35433 whole entry): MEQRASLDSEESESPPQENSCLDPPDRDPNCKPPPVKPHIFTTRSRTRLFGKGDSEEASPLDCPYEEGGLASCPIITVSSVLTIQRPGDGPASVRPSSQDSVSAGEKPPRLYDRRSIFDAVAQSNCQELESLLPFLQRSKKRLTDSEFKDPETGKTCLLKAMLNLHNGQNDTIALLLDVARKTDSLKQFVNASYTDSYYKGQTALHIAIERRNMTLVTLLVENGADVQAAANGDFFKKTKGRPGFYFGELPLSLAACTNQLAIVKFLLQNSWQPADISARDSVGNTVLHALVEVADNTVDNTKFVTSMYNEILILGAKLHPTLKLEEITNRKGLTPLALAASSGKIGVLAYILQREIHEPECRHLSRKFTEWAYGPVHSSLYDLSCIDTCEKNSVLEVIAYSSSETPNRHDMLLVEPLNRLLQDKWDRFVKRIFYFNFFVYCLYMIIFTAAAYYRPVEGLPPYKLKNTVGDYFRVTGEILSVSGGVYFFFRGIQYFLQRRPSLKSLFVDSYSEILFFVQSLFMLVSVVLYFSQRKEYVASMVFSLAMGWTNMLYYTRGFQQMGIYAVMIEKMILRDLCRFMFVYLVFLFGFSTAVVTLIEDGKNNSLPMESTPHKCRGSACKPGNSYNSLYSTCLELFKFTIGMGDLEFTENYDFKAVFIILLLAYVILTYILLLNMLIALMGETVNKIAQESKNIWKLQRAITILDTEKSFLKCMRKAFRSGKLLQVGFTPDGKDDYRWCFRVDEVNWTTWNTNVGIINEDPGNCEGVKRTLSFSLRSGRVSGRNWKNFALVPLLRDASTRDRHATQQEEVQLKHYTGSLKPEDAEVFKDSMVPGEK

[24] = test system: Mus musculus; experiment: Enhancement of motor activity C57BL/6 mouse assessed as reduction food consumption at 1 mg/kg, ip administered on day 3, 6, 8, 9, 10 measured on day 10; type: functional, organism-based; design: dose 1 mg/kg
[25] = test system: Mus musculus; experiment: Antiobesity activity in high fat diet fed C57BL/6 mouse assessed as reduction food consumption at 1 mg/kg, ip administered on day 3, 6, 8, 9, 10 measured after week 2 relative to control; type: functional; design: scale not given: the % may be the effect or the level left; conditions: route intraperitoneal
[26] = test system: Mus musculus; experiment: Antiobesity activity in high fat diet fed C57BL/6 mouse assessed as reduction food consumption at 1 mg/kg, ip administered on day 3, 6, 8, 9, 10 measured after week 1 relative to control; type: functional; design: scale not given: the % may be the effect or the level left; conditions: route intraperitoneal
[27] = test system: Mus musculus; experiment: Antiobesity activity in high fat diet fed C57BL/6 mouse assessed as reduction in body weight at 1 mg/kg, ip administered on day 3, 6, 8, 9, 10 measured on day 8 relative to control; type: functional; design: scale not given: the % may be the effect or the level left; conditions: route intraperitoneal
[28] = test system: Mus musculus; experiment: Antiobesity activity in high fat diet fed C57BL/6 mouse assessed as reduction in body weight at 1 mg/kg, ip administered on day 3, 6, 8, 9, 10 measured on day 9 relative to control; type: functional; design: scale not given: the % may be the effect or the level left; conditions: route intraperitoneal
[29] = test system: Mus musculus; experiment: Antiobesity activity in high fat diet fed C57BL/6 mouse assessed as reduction in body weight at 1 mg/kg, ip administered on day 3, 6, 8, 9, 10 measured on day 7 relative to control; type: functional; design: scale not given: the % may be the effect or the level left; conditions: route intraperitoneal
[30] = test system: Mus musculus; experiment: Antiobesity activity in Sabra mouse assessed as change in body weight at 1 mg/kg, ip administered on day 8, 9, 10, 11, 14, 18, 24 and 32 measured on day 35 relative to control; type: functional; conditions: route intraperitoneal
[31] = test system: Mus musculus; experiment: Antiobesity activity in Sabra mouse assessed as change in body weight at 1 mg/kg, ip administered on day 8, 9, 10, 11, 14, 18, 24 and 32 measured on day 14 relative to control; type: functional; conditions: route intraperitoneal
[32] = test system: Mus musculus; experiment: Antiobesity activity in Sabra mouse assessed as change in body weight at 1 mg/kg, ip administered on day 8, 9, 10, 11, 14, 18, 24 and 32 measured on day 21 relative to control; type: functional; conditions: route intraperitoneal

Question: Which Activity [1] does the source give for `CCCCCCCC/C=C\CCCCCCCC(=O)N[C@H](CO)C(C)C` here?
Answer: -5.49%

Question: And the Activity [2]?
Answer: -4%

Question: What about the Activity [3] of the same molecule?
Answer: -4.24%

Question: And the Activity [4]?
Answer: -1.79%

Question: And the Activity [5]?
Answer: 83.01 mg/dL

Question: What about the Activity [6] of the same molecule?
Answer: 126 IU/L

Question: And the Activity [7]?
Answer: -21.6%

Question: What about the Activity [8] of the same molecule?
Answer: -2.7%

Question: What about the Activity [9] of the same molecule?
Answer: 2.1%

Question: What about the Activity [10] of the same molecule?
Answer: -3.6%

Question: What about the Activity [11] of the same molecule?
Answer: -5.6%

Question: What about the Activity [12] of the same molecule?
Answer: -2.6%

Question: What about the Activity [13] of the same molecule?
Answer: Not Active

Question: What about the Activity [14] of the same molecule?
Answer: -11.4%

Question: What about the Activity [15] of the same molecule?
Answer: -6%

Question: What about the Activity [16] of the same molecule?
Answer: -4.9%

Question: And the Activity [17]?
Answer: -2.2%

Question: And the Activity [18]?
Answer: Non-toxic

Question: And the Activity [19]?
Answer: Non-toxic

Question: And the Activity [20]?
Answer: Active

Question: And the Activity [21]?
Answer: -18%

Question: And the Activity [22]?
Answer: -20%

Question: What about the inhibition [23] of the same molecule?
Answer: 1%

Question: What about the Activity [24] of the same molecule?
Answer: Active

Question: What about the Activity [25] of the same molecule?
Answer: 45%

Question: And the Activity [26]?
Answer: 22%

Question: And the Activity [27]?
Answer: -3.2%

Question: What about the Activity [28] of the same molecule?
Answer: -3.1%

Question: What about the Activity [29] of the same molecule?
Answer: -3.2%

Question: What about the Activity [30] of the same molecule?
Answer: -6.2%

Question: What about the Activity [31] of the same molecule?
Answer: -1.8%

Question: And the Activity [32]?
Answer: -2.4%
